Tests used:
pY397-HS1 = assay: Phosphoprotein screen in human whole blood with CBL inhibitor at 10 uM: HS1; type: cell-based; conditions: 1 hr 37° C., human whole blood 8 donors, anti-CD3/CD28 + crosslinker 60 minutes
Procedure: (§1) To identify proximal biomarkers of CBL-B inhibition in immune cells, a panel of phosphorylated proteins were screened in human whole blood incubated with CBL-B inhibitor and concomitant anti-CD3 and anti-CD28 antibodies. The effect of CBL-B inhibition was assessed across multiple cellular signaling networks.
(§2) Human heparinized whole blood from 8 donors was received after an overnight shipment at 4° C. The blood was plated, treated with CBL inhibitor at 10 uM and incubated at 37° C. for 60 minutes. After incubation, the cells were stimulated with anti-CD3/CD28 followed by a cross-linking antibody (30 μg of goat anti-mouse IgG (H+L) antibody (Invitrogen)). After 60 minutes, the cells were fixed, and stained using surface markers for T cells (CD3^+CD4^+& CD3^+CD8^+) and analyzed by flow cytometry for target phosphorylation of the following markers: pY180/pY511-ITK, pY397-HS1, pY759-PLCg2, pY783-PLCg1, pY525/pY526/pY348-SYK & pY319-Zap70.
(§3) Fold change of each biomarker was calculated with the following example equation: […]
(§4) Whole blood from eight human donors was collected in sodium heparin anti-coagulant treated with 10 μM of Compound 23 for 1 hr at 37° C. […] Fold change of % phosphorylation normalized to DMSO was quantitated in T cells (CD8^+) using flow cytometry is provided in FIGS. 6A-6B.

phosphorylated PLCγ2 = assay: Phosphorylated PLCγ2 in circulating CD8+ T cells after oral dosing of cynomolgus monkeys (flow cytometry, ex vivo anti-CD3/CD28 stimulation)
Procedure: To assess these proximal biomarkers of Cbl-b inhibition on CD8^+ T cells, pharmacodynamic analysis was performed in conjunction with a pharmacokinetic study conducted at Charles River Laboratories. Circulating blood was obtained from cynomolgus monkeys treated with 0.3, 1, 3 or 10 mg/kg of Compound 23 after a single dose and after 3 doses. The response to Cbl-b inhibition on proximal biomarkers (pHS1, pPLCγ2, and pZAP70) was measured in CD8^+ T cells using flow cytometry. This technique is highly quantitative and can measure multiple phosphorylation markers in different cell populations within the same sample.
Compound 23 was formulated in vehicle (0.2% Tween 80 in DI water+1 eq HCL) and aliquoted into individual (not serially diluted) dosing solutions of 0.3, 1, 3 and 10 mg/mL by stirring for 5-10 min, vortexing, and sonicating again as necessary to produce an even suspension that was stirred constantly at 4° C. to achieve and maintain a homogenous suspension. To prepare vehicle, 0.2% Tween 80 in deionized (DI) water, water was measured into a beaker with continuous stirring. Tween 80 was added sequentially, and stirring continued until the solution dissolved; the solution was stored at 2-8° C.
For pharmacodynamic analysis, whole blood was obtained from cynomolgus monkeys and used for flow cytometry assays to evaluate phosphorylated biomarkers, pHS1, pPLCγ2, and pZAP70, in circulating CD8^+ T cells.
On the day of dosing, blood samples were collected via femoral venipuncture in accordance with test facility standard operating procedures. 1 mL/tube of whole blood was collected pre-dose (time 0) and at 0.5, 1, 2, 4, 6, and 24 hours post-dose and added into 2 types of TruCulture tubes (Myriad) for pharmacodynamic analysis. One tube contained media alone and is denoted as “Null”, and the second tube contained 2 μg/mL anti-CD3 and anti-CD28, which were prepared at Nurix prior to the study using cynomolgus specific anti-CD3 (BD Biosciences; SP34-2) and anti-CD28 (Bio X cell; CD28.2) and denoted as “CD3/CD28”. Tubes were shipped by overnight courier on cold pack the day of collection and analyzed for phosphorylated biomarkers of Cbl-b inhibition by flow cytometry.
Following PD collection, upon receipt of TruCulture tubes, each tube was inverted 5-6 times to ensure a mixed suspension of blood. 30 μg of goat anti-mouse IgG (H+L) antibody (Invitrogen) was added to cross-link the stimulation antibodies and induce synchronized cellular stimulation. Cells were stimulated for 60 minutes alongside non-stimulated controls for each time point.
All buffers (Phosflow Lyse/Fix Buffer 5×, Phosflow Perm Buffer I; BD Biosciences) were prepared according to the manufacturer's instructions. […]

pY783-PLCg1 = assay: Phosphoprotein screen in human whole blood with CBL inhibitor at 10 uM: PLCγ1; type: cell-based; conditions: 1 hr 37° C., human whole blood 8 donors, anti-CD3/CD28 + crosslinker 60 minutes
Procedure: as §1, §2, §3, §4

Structure (SMILES): C[C@H]1CCCN(Cc2cc3c(c(C(F)(F)F)c2)CN(c2cccc([C@]4(c5nncn5C)C[C@@H](C)C4)c2)C3=O)C1 [Compound 23]
- increased phosphorylation of HS1 compared to DMSO control (pY397-HS1): 3-4 fold
- phosphorylated PLCγ2 in comparison to baseline (phosphorylated PLCγ2; multiple doses of 10 mg/kg, 3 days of daily oral dosing): significant increases
- time of peak increase of phosphorylated PLCγ2 (phosphorylated PLCγ2; multiple doses of 10 mg/kg, 4 hours post dose): 76 h
- time of maximal signal, phosphorylated PLCγ2 (phosphorylated PLCγ2; single dose oral 10 mg/kg): 2 hours post dose
- phosphorylated PLCγ2 in comparison to baseline (phosphorylated PLCγ2; single dose oral 10 mg/kg, circulating CD8+ T cells, anti-CD3/CD28 stimulated): significant increases
- increased phosphorylation of PLCγ1 compared to DMSO control (pY783-PLCg1): 2-3 fold

Reference: patent US20230355599A1, “BIOMARKERS FOR CBL, AND COMPOSITIONS AND METHODS FOR THEIR USE” (NURIX THERAPEUTICS, INC., priority 2022, published 2023)
